Measured values as given in patent US5424426A, “Dithiolanylglycine-containing HIV protease inhibitors of the hydroxyethylene isostere type” (Bayer Aktiengesellschaft, priority 1992, dated 1995).
Where a name gives a salt, the structure may show the parent alone.

Experiments:
HIV [1] = test: HIV infection in cell culture, syncytia formation in PBLs; assay type: cell-based; details: HIV-infected normal human blood lymphocytes (PBLs); 50% suppression of virus-induced syncytia
Experimental: (§1) The HIV test was carried out with slight modifications by the method of Pauwels et al. [cf. Journal of Virological Methods 20, (1988), 309-321].
Normal human blood lymphocytes (PBLs) were enriched on Ficoll-Hypaque and stimulated in RPMI 1640, 20% foetal calf serum containing phytohaemagglutinin (90 μg/ml) and interleukin-2 (40 U/ml). For infection with the infectious HIV, PBLs were pelleted and the cell pellet was then suspended in 1 ml of HIV virus adsorption solution and incubated for 1 hour at 37° C.
The virus adsorption solution was centrifuged and the infected cell pellet taken up in growth medium so that a concentration of 1×10^5 cells per ml was established. The cells infected in such a way were pipetted at 1×10^4 cells/well into the wells of 96-well microtitre plates.
The first vertical row of the microtitre plate contained only growth medium and cells which had not been infected, but otherwise had been treated exactly as described above (cell control). The second vertical row of the microtitre plate contained only HIV-infected cells (virus control) in growth medium. The other wells contained the compounds according to the invention in different concentrations, starting from the wells of the 3rd vertical row of the microtitre plate, from which the test substances were diluted 2^10 times in steps of two.
The test batches were incubated at 37° C. until in the untreated virus control the syncytia formation typical of HIV occurred (between day 3 and 6 after infection), which was then assessed by microscopy.
(§2) The IC50 values were determined as the concentrations of the […] at which 50% (about 10 syncytia) of the virus-induced syncytia were suppressed by the treatment with the compound according to the invention.

HIV protease (HIV-1) = biological target: T1, HIV protease (HIV-1) (Human immunodeficiency virus type 1 group M subtype B, UniProt P04585); test: HIV-specific protease enzyme test (RP-HPLC analysis of synthetic peptide cleavage); assay type: biochemical; details: purified HIV protease, synthetic Gag cleavage-site peptide
T1 construct: purified HIV protease was incubated with synthetic peptide
Experimental: The results of the examples listed below were determined by the HIV test system described in the following references [cf. Hansen, J., Billich, S., Schulze, T., Sukrow, S. and Molling, K. (1988), EMBO Journal, Vol. 7, No. 6, pp. 1785-1791]: purified HIV protease was incubated with synthetic peptide which imitates a cleavage site in the Gag precursor protein and represents an in vivo cleavage site of the HIV protease. The resulting cleavage products of the synthetic peptide were analysed by means of reverse phase high performance liquid chromatography (RP-HPLC). The IC50 values given relate to the substance concentration which causes a 50% strength inhibition of the protease activity under the above-mentioned test conditions.

HIV [2] = test: HIV infection in cell culture, H-9 cells; assay type: cell-based; details: HIV-infected H-9 cells
Experimental: as §1, §2

Row | Compound | IC50 (HIV [1]) [µM] | IC50 (HIV protease (HIV-1)) [µM] | IC50 (HIV [2]) [µM]
1 | 1-{(2R,4S,5S)-5-[(2S)-3-(tert-Butylsulphonyl)-2-(1-naphthylmethyl)propanoyl]-(2R)-N-(tert-butoxycarbonyl)-2-amino-2-[2-(1,3-dithiolan-2-yl)ethanoyl]amino-6-cyclohexyl-4-hydroxy-2-(1-methyl)ethyl-hexanoyl}-S-isoleucinyl-2-pyridylamide [Example 8] | 1 | 0.0012 to 0.009 | –
2 | 1-{(2R,S,4S,5S) -5-[(2R)-N-(tert-Butoxycarbonyl)-2-amino-2-[2-(1,3-dithiolan-2-yl)]ethanoyl]amino-6-cyclohexyl-4-hydroxy-2-(1-methyl)ethyl-hexanoyl}-S-isoleucinyl2-pyridylamide [Example 1] | > 1 | 0.0014 to 0.009 | –
3 | 1-}(2S,4S,5S)-5-[(2S)-3-(tert-Butylsulphonyl)-2-(1-naphthylmethyl)propanoyl]-(2R)-N-(tert-butoxycarbonyl)-2-amino-2-[2-(1,3-dithiolan-2-yl)]ethanoyl]amino-6-cyclohexyl-4-hydroxy-2-(1-methyl)ethyl-hexanoyl}-S-isoleucinyl-2-pyridylamide [Example 9] | 0.04 | 0.001 to 0.009 | 0.011
4 | CC[C@H](C)[C@H](NC(=O)C(C[C@H](O)[C@H](CC1CCCCC1)NC(=O)[C@@H](N)C1SCCS1)C(C)C)C(=O)Nc1ccccn1 (stereo partly drawn) [Example 2, 1-{(2R,S;4S,5S)-5-[(2R)-2-Amino-2-[2-(1,3-dithiolan-2-yl)]ethanoyl]-amino-6-cyclohexyl-4-hydroxy-2-(1-methyl)ethyl-hexanoyl}-S-isoleucinyl-2-pyridylamide dihydrochloride] | 10 | 0.0013 to 0.009 | –
5 | CC[C@H](C)[C@H](NC(=O)[C@H](Cc1ccccc1)C[C@H](O)[C@H](CC1CCCCC1)NC(=O)[C@@H](NC(=O)OC(C)(C)C)C1SCCS1)C(=O)Nc1ccccn1 [Example 3, 1-{(2R,4S,5S)-5-[(2R)-N-(tert-Butoxycarbonyl)-2-amino-2-[2-(1,3-dithiolan-2-yl)]ethanoyl]amino-6-cyclohexyl-4-hydroxy-2-(phenyl)methyl-hexanoyl}-S-isoleucinyl-2-pyridylamide] | 1 | 0.013 to 0.08 | –
6 | CC[C@H](C)[C@H](NC(=O)[C@@H](Cc1ccccc1)C[C@H](O)[C@H](CC1CCCCC1)NC(=O)[C@@H](NC(=O)OC(C)(C)C)C1SCCS1)C(=O)Nc1ccccn1 [Example 4, 1-{(2S,4S,5S)-5-[(2R)-N-(tert-Butoxycarbonyl)-2-amino-2-[2-(1,3-dithiolan-2-yl)]ethanoyl]amino-6-cyclohexyl-4-hydroxy-2-(phenyl)methyl-hexanoyl}-S-isoleucinyl2-pyridylamide] | 1 | 0.016 to 0.08 | –
7 | C=CCC(C[C@H](O)[C@H](CC1CCCCC1)NC(=O)[C@@H](NC(=O)OC(C)(C)C)C1SCCS1)C(=O)N[C@H](C(=O)Nc1ccccn1)[C@@H](C)CC (stereo partly drawn) [Example 5, 1-{(2R,S,4S,5S)-5-[(2R)-N-(tert-Butoxycarbonyl)-2-amino-2-[2-(1,3-dithiolan-2-yl)]ethanoyl]amino-6-cyclohexyl-4-hydroxy-2-(2-propenyl)-hexanoyl}-S-isoleucinyl-2-pyridylamide] | 0.4 | 0.0014 to 0.009 | –
